We go through 18 compounds from patent US10392383B2, “3-(1H-benzo[d]imidazol-2-yl)-1H-pyrazolo[4,3-b]pyridines and therapeutic uses thereof” (Samumed, LLC, priority 2015, dated 2019).

One assay deals with IL-6 (THP-1 cells). Put plainly: IL-6 inhibition in LPS-stimulated THP-1 monocytes (HTRF). The class given is cell-based. Conditions: Homo sapiens, IL-6 HTRF; for EC50: 500 ng/mL LPS, Table 6; for inhibition at 10 µM: LPS, Table 6, read-out: percent inhibition at 10 μM (given in parentheses for EC50 >10 μM). The procedure: Human Monocyte Cell Culture: Human monocyte cell line (THP-1 cells; Catalog # TIB-202, ATCC, Manassas, Va.) were cultured in Roswell Park Memorial Institute (RPMI) 1640 Medium (Catalog #21870-100, Buffalo, N.Y.) with 1% L-glutamine, 1% HEPES, 1% Sodium Pyruvate, 2% Sodium Bicarbonate supplemented with 100 units/mL penicillin, 50 μg/mL streptomycin, 2-mercaptoethanol (0.05 mM) [basal medium] and 10% fetal bovine serum (Catalog #16140089, Life Technologies, Carlsbad, Calif.) at 37° C. and 5% CO2.
Compound Screening: THP-1 cells were cultured in basal media with 1% FBS for 24 hours before the start of the assay. Each compound was dissolved in DMSO as a 10 mM stock and used to prepare compound source plates. Serial dilution (1:3, 10-point dose-response curves starting from 10 μM) and compound transfer was performed using the ECHO 550 (Labcyte, Sunnyvale, Calif.) into 384-well white low volume assay plates (Greiner Bio-One) with appropriate DMSO backfill for a final DMSO concentration of 0.1%. THP-1 cells were plated at 5000 cells/well in the 384-well plates and incubated at 37° C. for 2 h. 500 ng/mL of LPS was added after 2 hours and cells were incubated for another 22 hours at 37° C. Plates were spun in a centrifuge for 1 minute at […] and a mixture of anti-IL6 XL665, and anti-IL6 Cryptate diluted in reconstitution buffer (Cisbio Inc.) was added to each well. Following incubation for 3 hrs at room temperature, Homogeneous Time-Resolved Fluorescence (HTRF) was measured using the Envision (Perkin Elmer) at 665 nm and […]. The ratio of fluorescence at 665 nm to 620 nm was used as a readout for IL6 quantification. All samples were processed in duplicate. Readings were normalized to DMSO treated cells and normalized activities were utilized for EC50 calculations using the dose-response log (inhibitor) vs. response-variable slope (four parameters) nonlinear regression feature available in GraphPad Prism 5.0 (or Dotmatics). For EC50 of >10 μM, the percent inhibition at 10 μM is provided.

The test system of a further assay is SW480 colon cancer cells. Description: Cell viability assay (CellTiter-Blue) in SW480 cells. Format: cell-based. Conditions: Homo sapiens, 96 h, four days; for inhibition at 10 µM: read-out: percent inhibition at 10 μM (given for EC50 of >10 μM); for EC50: CellTiter-Blue, 10 μM to 0.0045 μM. The method, then: Representative compounds were screened using the following assay procedure to assess the effect on cell viability as described below.
Each compound was dissolved in DMSO as a 10 mM stock and used to prepare compound source plates. Serial dilution (1:3, 8-point dose-response curves from 10 μM to 0.0045 μM) and compound transfer was performed using the ECHO 550 (Labcyte, Sunnyvale, Calif.) into 96-well clear bottom, black-walled plates (Corning-Costar).
Approximately 2×10^3 SW480 colon cancer cells were seeded into each well and allowed to incubate in the presence or absence of compound for four days at 37° C./5% CO2. Eight replicates of DMSO-treated cells served as controls and cells treated with compound were performed in duplicate.
After incubation, 20 μL of CellTiter-Blue (Promega) was added to each well allowed to incubate for approximately 3 hours. This reagent was a buffered solution which contains resazurin, metabolically active cells were able to reduce rezarurin (blue) into resorufin (pink) which was highly fluorescent. This measured fluorescence was used as a readout for cell viability.
After incubation, the plates were read at Ex 560 nm Em 590 nm (Cytation 3, BioTek). Dose-response curves were generated and EC50 concentration values were calculated using non-linear regression curve fit in the GraphPad Prism (San Diego, Calif.) or Dotmatics' Studies Software (Bishops Stortford, UK). For EC50 of >10 μM, the percent inhibition at 10 μM is provided.
(The colour change of resazurin is a common sign of viable cells or microbes.)

The structures appear in SMILES notation. A value given as a limit tells only on which side of the number the result lay.

One may read the EC50 as the concentration needed to bring the measured effect to its halfway point. By inhibition is commonly meant the percentage by which the read-out fell short of the control. Take `c1cc(-c2ccncc2)c2nc(-c3n[nH]c4ccc(-c5cnccn5)nc34)[nH]c2c1` [Compound 584, 5-(Pyrazin-2-yl)-3-(4-(pyridin-4-yl)-1H-benzo[d]imidazol-2-yl)-1H-pyrazolo[4,3-b]pyridine]: in the assay on IL-6 (THP-1 cells), the concentration giving a half-maximal response (EC50) is over 10 µM and the inhibition at 10 µM is 14.7%. Further, in the assay on SW480 colon cancer cells, the inhibition at 10 µM was 9.6% and the 50% effective concentration (EC50) is over 10 µM.
Regarding `O=C(CC1CCNCC1)Nc1cncc(-c2ccc3[nH]nc(-c4nc5c(-c6ccccn6)cccc5[nH]4)c3n2)c1` [Compound 593, 2-(Piperidin-4-yl)-N-(5-(3-(4-(pyridin-2-yl)-1H-benzo[d]imidazol-2-yl)-1H-pyrazolo[4,3-b]pyridin-5-yl)pyridin-3-yl)acetamide], the EC50 in the assay with IL-6 (THP-1 cells) worked out at 0.929 µM. Further, in the assay with SW480 colon cancer cells, the inhibition at 10 µM came out at 13.6% and the EC50 is over 10 µM.
Regarding `Cc1cn(-c2cccc3[nH]c(-c4n[nH]c5ccc(C6=CCNCC6)nc45)nc23)cn1` [Compound 618, 3-(4-(4-Methyl-1H-imidazol-1-yl)-1H-benzo[d]imidazol-2-yl)-5-(1,2,3,6-tetrahydropyridin-4-yl)-1H-pyrazolo[4,3-b]pyridine], in the assay with IL-6 (THP-1 cells), the EC50 was over 10 µM and the inhibition at 10 µM stood at 42%. Also, in the assay on SW480 colon cancer cells, the inhibition at 10 µM stood at 7.4% and the concentration giving a half-maximal response (EC50) was over 10 µM.
In turn, `Cc1cn(-c2cccc3[nH]c(-c4n[nH]c5ccc(-c6cncc(N7CC(N)C7)n6)nc45)nc23)cn1` [Compound 622, 1-(6-(3-(4-(4-Methyl-1H-imidazol-1-yl)-1H-benzo[d]imidazol-2-yl)-1H-pyrazolo[4,3-b]pyridin-5-yl)pyrazin-2-yl)azetidin-3-amine] displayed an EC50 with IL-6 (THP-1 cells) of 0.38 µM. For the same compound, in the assay on SW480 colon cancer cells, the inhibition at 10 µM was determined as 17.8% and the EC50 is over 10 µM.
The corresponding values for `Cc1cn(-c2cccc3[nH]c(-c4n[nH]c5ccc(-c6cncc(OCCN(C)C)c6)nc45)nc23)cn1` [Compound 627, N,N-Dimethyl-2-((5-(3-(4-(4-methyl-1H-imidazol-1-yl)-1H-benzo[d]imidazol-2-yl)-1H-pyrazolo[4,3-b]pyridin-5-yl)pyridin-3-yl)oxy)ethan-1-amine] are 1 µM, 14.1% and over 10 µM.
For `CN1CCN(c2cccc3[nH]c(-c4n[nH]c5ccc(-c6cnccn6)nc45)nc23)CC1` [Compound 648, 3-(4-(4-Methylpiperazin-1-yl)-1H-benzo[d]imidazol-2-yl)-5-(pyrazin-2-yl)-1H-pyrazolo[4,3-b]pyridine], the values for the EC50 in the assay with IL-6 (THP-1 cells) and with SW480 colon cancer cells were 0.0695 µM and 9.1 µM, respectively.
Take `c1ccc2[nH]c(-c3n[nH]c4ccc(-c5cn[nH]c5)nc34)nc2c1` [Compound 651, 3-(1H-Benzo[d]imidazol-2-yl)-5-(1H-pyrazol-4-yl)-1H-pyrazolo[4,3-b]pyridine]: in the assay with IL-6 (THP-1 cells), the EC50 is over 10 µM and the inhibition at 10 µM came out at 0%. For the same compound, in the assay on SW480 colon cancer cells, the inhibition at 10 µM amounted to 33.9% and the concentration for a half-maximal effect (EC50) is over 10 µM.
In the assay on IL-6 (THP-1 cells), `c1ccc2[nH]c(-c3n[nH]c4ccc(-c5cncc(OC6CCNCC6)c5)nc34)nc2c1` [Compound 656, 3-(1H-Benzo[d]imidazol-2-yl)-5-(5-(piperidin-4-yloxy)pyridin-3-yl)-1H-pyrazolo[4,3-b]pyridine] returned a concentration for a half-maximal effect (EC50) of 1.4 µM. Further, in the assay with SW480 colon cancer cells, the inhibition at 10 µM came to 20.8% and the EC50 was over 10 µM.
With `Oc1cncc(-c2ccc3[nH]nc(-c4nc5ccccc5[nH]4)c3n2)c1` [Compound 661, 5-(3-(1H-Benzo[d]imidazol-2-yl)-1H-pyrazolo[4,3-b]pyridin-5-yl)pyridin-3-ol], in the assay on IL-6 (THP-1 cells), the EC50 is over 10 µM and the inhibition at 10 µM came to 50.9%. In the assay with SW480 colon cancer cells, the inhibition at 10 µM was determined as 29.2% and the EC50 is over 10 µM.
For the compound `O=C(CC1CCNCC1)Nc1cncc(-c2ccc3[nH]nc(-c4nc5c(-c6ccsc6)cccc5[nH]4)c3n2)c1` [Compound 673, 2-(Piperidin-4-yl)-N-(5-(3-(4-(thiophen-3-yl)-1H-benzo[d]imidazol-2-yl)-1H-pyrazolo[4,3-b]pyridin-5-yl)pyridin-3-yl)acetamide], the EC50 in the assay with IL-6 (THP-1 cells) and in the assay on SW480 colon cancer cells was over 10 µM throughout. The inhibition at 10 µM in the assay with IL-6 (THP-1 cells) was 24.8%; in the assay with SW480 colon cancer cells, 4.3%.
Regarding `Cc1ncc(-c2ccc3[nH]nc(-c4nc5c(-c6ccoc6)cccc5[nH]4)c3n2)n1C` [Compound 685, 5-(1,2-Dimethyl-1H-imidazol-5-yl)-3-(4-(furan-3-yl)-1H-benzo[d]imidazol-2-yl)-1H-pyrazolo[4,3-b]pyridine], the concentration for a half-maximal effect (EC50) with IL-6 (THP-1 cells) amounted to 9.37 µM; in the assay on SW480 colon cancer cells, 0.635 µM.
Consider `c1cc(-c2ccoc2)c2nc(-c3n[nH]c4ccc(-c5cncc(OCCN6CCCC6)c5)nc34)[nH]c2c1` [Compound 690, 3-(4-(Furan-3-yl)-1H-benzo[d]imidazol-2-yl)-5-(5-(2-(pyrrolidin-1-yl)ethoxy)pyridin-3-yl)-1H-pyrazolo[4,3-b]pyridine], for which the EC50 in the assay on IL-6 (THP-1 cells) is 0.0939 µM; with SW480 colon cancer cells, 3.85 µM.
Take `COc1cncc(-c2ccc3[nH]nc(-c4nc5c(-c6ccoc6)cccc5[nH]4)c3n2)c1` [Compound 692, 3-(4-(Furan-3-yl)-1H-benzo[d]imidazol-2-yl)-5-(5-methoxypyridin-3-yl)-1H-pyrazolo[4,3-b]pyridine]: the figures for the EC50 in the assay with IL-6 (THP-1 cells) and in the assay with SW480 colon cancer cells were over 10 µM and 2.1 µM, respectively. Further, the inhibition at 10 µM in the assay with IL-6 (THP-1 cells) came out at 53.2%.
Regarding `Cn1cc(-c2ccc3[nH]nc(-c4nc5c(-c6cccs6)cccc5[nH]4)c3n2)cn1` [Compound 700, 5-(1-Methyl-1H-pyrazol-4-yl)-3-(4-(thiophen-2-yl)-1H-benzo[d]imidazol-2-yl)-1H-pyrazolo[4,3-b]pyridine], in the assay on IL-6 (THP-1 cells), the EC50 is over 10 µM and the inhibition at 10 µM was 27.4%. For the same compound, in the assay with SW480 colon cancer cells, the inhibition at 10 µM came out at 27.3% and the EC50 was over 10 µM.
On to `Cc1ccc(-c2cccc3[nH]c(-c4n[nH]c5ccc(C6=CCNCC6)nc45)nc23)s1` [Compound 730, 3-(4-(5-Methylthiophen-2-yl)-1H-benzo[d]imidazol-2-yl)-5-(1,2,3,6-tetrahydropyridin-4-yl)-1H-pyrazolo[4,3-b]pyridine], for which the values for the EC50 with IL-6 (THP-1 cells) and with SW480 colon cancer cells were 9.16 µM and 0.642 µM, respectively.
Turning to `Cc1ccc(-c2cccc3[nH]c(-c4n[nH]c5ccc(-c6cncc(OC7CCCCC7)c6)nc45)nc23)s1` [Compound 735, 5-(5-(Cyclohexyloxy)pyridin-3-yl)-3-(4-(5-methylthiophen-2-yl)-1H-benzo [d]imidazol-2-yl)-1H-pyrazolo[4,3-b]pyridine], in the assay with IL-6 (THP-1 cells), the EC50 is over 10 µM and the inhibition at 10 µM was 38.8%. Further, in the assay with SW480 colon cancer cells, the inhibition at 10 µM was determined as 32.3% and the half-maximal effective concentration (EC50) was over 10 µM.
In the case of `Cn1cc(-c2ccc3[nH]nc(-c4nc5c(-c6cc(F)cc(CNS(C)(=O)=O)c6)cccc5[nH]4)c3n2)cn1` [Compound 764, N-(3-Fluoro-5-(2-(5-(1-methyl-1H-pyrazol-4-yl)-1H-pyrazolo[4,3-b]pyridin-3-yl)-1H-benzo[d]imidazol-4-yl)benzyl)methanesulfonamide], the EC50 with IL-6 (THP-1 cells) stood at 3.15 µM; in the assay on SW480 colon cancer cells, 1.41 µM.
Regarding `CS(=O)(=O)NCc1cc(F)cc(-c2cccc3[nH]c(-c4n[nH]c5ccc(-c6cncc(NC(=O)CC7CCNCC7)c6)nc45)nc23)c1` [Compound 769, N-(5-(3-(4-(3-Fluoro-5-(methylsulfonamidomethyl)phenyl)-1H-benzo[d]imidazol-2-yl)-1H-pyrazolo[4,3-b]pyridin-5-yl)pyridin-3-yl)-2-(piperidin-4-yl)acetamide], in the assay with IL-6 (THP-1 cells), the EC50 was over 10 µM and the inhibition at 10 µM was determined as 25.4%. In the assay on SW480 colon cancer cells, the inhibition at 10 µM is 0% and the concentration for a half-maximal effect (EC50) was over 10 µM.
